The NIST ThermoML archive (doi:10.1016/j.jct.2013.09.042)
Numbers after ± are expanded uncertainties.

Legend:
[1] = Crystal; for vapor or sublimation pressure: Transpiration method; for Normal melting temperature: DTA
[2] = Molar enthalpy of transition or fusion; details: Crystal; DSC

Cc1cccc(N=C2SCC3CCCN2C3)c1 (centres undefined) [N-(m-tolyl)-3-thia-1-azabicyclo[3.3.1]nonan-2-imine]
[1]
Details	vapor or sublimation pressure [kPa]
353.15 K	5.65e-05 ± 6e-06
355.15 K	7.21e-05 ± 7.7e-06
357.15 K	9.52e-05 ± 1e-05
359.15 K	0.0001112 ± 1.2e-05
361.15 K	0.0001522 ± 1.6e-05
362.15 K	0.0001678 ± 1.8e-05
364.15 K	0.0002107 ± 2.2e-05
366.15 K	0.0002637 ± 2.8e-05
368.15 K	0.0003248 ± 3.4e-05
370.15 K	0.0004227 ± 4.5e-05
372.15 K	0.0005258 ± 5.6e-05
374.15 K	0.0006715 ± 7.1e-05
376.15 K	0.0008044 ± 8.5e-05

Details	Molar enthalpy of transition or fusion [kJ/mol]	Normal melting temperature [°C]
[1]	–	125.4 ± 0.5
[2]	26.5 ± 1.1	–

CCc1ccc(N=C2SCC3CCCN2C3)cc1 (centres undefined) [N-(4-ethylphenyl)-3-thia-1-azabicyclo[3.3.1]nonan-2-imine]
[1]
Details	vapor or sublimation pressure [kPa]
359.15 K	1.09e-05 ± 1.2e-06
362.15 K	1.35e-05 ± 1.5e-06
364.15 K	1.75e-05 ± 1.9e-06
366.15 K	1.98e-05 ± 2.1e-06
368.15 K	2.54e-05 ± 2.7e-06
371.15 K	2.86e-05 ± 3.1e-06
374.15 K	3.88e-05 ± 4.1e-06
376.15 K	3.03e-05 ± 1.5e-05
377.15 K	5.41e-05 ± 5.8e-06
380.15 K	6.76e-05 ± 7.2e-06
381.15 K	7.59e-05 ± 8.1e-06
382.15 K	8.41e-05 ± 9e-06
384.15 K	8.43e-05 ± 9e-06
386.15 K	0.0001059 ± 1.1e-05
389.15 K	0.0001278 ± 1.4e-05

Details	Molar enthalpy of transition or fusion [kJ/mol]	Normal melting temperature [°C]
[1]	–	121.5 ± 0.5
[2]	16.4 ± 1.1	–

Cc1ccc(N=C2SCC3CCCN2C3)cc1Cl (centres undefined)
[1]
Details	vapor or sublimation pressure [kPa]
376.15 K	3.1e-05 ± 3.3e-06
377.15 K	3.39e-05 ± 3.6e-06
378.15 K	3.79e-05 ± 4e-06
379.15 K	4.05e-05 ± 4.3e-06
381.15 K	5.21e-05 ± 5.6e-06
382.15 K	5.74e-05 ± 6.1e-06
383.15 K	6.78e-05 ± 7.2e-06
384.15 K	7.6e-05 ± 8.1e-06
386.15 K	9.31e-05 ± 9.9e-06
388.15 K	0.0001239 ± 1.3e-05
390.15 K	0.0001553 ± 1.7e-05
392.15 K	0.0002006 ± 2.1e-05
394.15 K	0.0002521 ± 2.7e-05
396.15 K	0.0003109 ± 3.3e-05

Details	Molar enthalpy of transition or fusion [kJ/mol]	Normal melting temperature [°C]
[1]	–	133.5 ± 0.5
[2]	22.7 ± 1.1	–

Clc1ccc(N=C2SCC3CCCN2C3)cc1 (centres undefined) [N-(4-chlorophenyl)-3-thia-1-azabicyclo[3.3.1]nonan-2-imine]
[1]
Details	vapor or sublimation pressure [kPa]
368.15 K	6.26e-05 ± 6.7e-06
369.15 K	7.04e-05 ± 7.5e-06
371.15 K	8.91e-05 ± 9.5e-06
373.15 K	0.0001094 ± 1.2e-05
374.15 K	0.0001327 ± 1.4e-05
375.15 K	0.000149 ± 1.6e-05
376.15 K	0.0001659 ± 1.8e-05
378.15 K	0.0002065 ± 2.2e-05
380.15 K	0.0002459 ± 2.6e-05
382.15 K	0.0003128 ± 3.3e-05
384.15 K	0.0003887 ± 4.1e-05
386.15 K	0.0004737 ± 5e-05
388.15 K	0.0005748 ± 6.1e-05
390.15 K	0.0007333 ± 7.8e-05
391.15 K	0.0008441 ± 9e-05

Details	Molar enthalpy of transition or fusion [kJ/mol]	Normal melting temperature [°C]
[1]	–	138.7 ± 0.5
[2]	11.8 ± 1	–

Clc1ccc(N=C2SCC3CCCN2C3)cc1Cl (centres undefined)
[1]
Details	vapor or sublimation pressure [kPa]
352.15 K	1.15e-05 ± 1.2e-06
353.15 K	1.25e-05 ± 1.4e-06
354.15 K	1.59e-05 ± 1.7e-06
355.15 K	1.82e-05 ± 2e-06
356.15 K	2.26e-05 ± 2.4e-06
357.15 K	2.27e-05 ± 2.4e-06
358.15 K	2.56e-05 ± 2.7e-06
359.15 K	2.58e-05 ± 2.8e-06
360.15 K	2.91e-05 ± 3.1e-06
361.15 K	3.49e-05 ± 3.7e-06
362.15 K	4e-05 ± 4.3e-06
363.15 K	4.4e-05 ± 4.7e-06

Details	Molar enthalpy of transition or fusion [kJ/mol]	Normal melting temperature [°C]
[1]	–	97.8 ± 0.5
[2]	23.5 ± 1.1	–
